Measured values as given in PMC8954733, “Microbial Transformation and Biological Activities of the Prenylated Aromatic Compounds from Broussonetia kazinoki” (Molecules, 2022).
Like-named read-outs stand apart in the source and are kept apart here.

Tests used:
[1] = tested on: B16F1 (mouse melanoma) cell line; assay: MTT cytotoxicity assay, B16F1; type: cell-based; conditions: 24 h treatment, mean ± SD, read-out: Cytotoxic effect IC50, cell line B16F1
Method: (§1) To evaluate the anticancer potential of compounds 1–11, an MTT assay was used to determine the cell viability of human melanoma (A375P) and murine melanoma (B16F10 and B16F1) cell lines following a 24 h treatment with compounds 1–11.
(§2) The cytotoxic activities of all the compounds (1–11) were evaluated using the MTT assay. Briefly, the A375P (human melanoma), B16F10 and B16F1 (mouse melanoma) cell lines obtained from the Korean Cell Line Bank (Seoul, Korea) were cultured in Dulbecco’s Modified Eagle’s Medium (DMEM) (Gibco, CA, USA) containing penicillin (100 units/mL)-streptomycin (100 µg/mL) (Gibco, CA, USA) and 5% heat-inactivated fetal bovine serum (FBS) (Welgene, Korea) in a humidified chamber with 5% CO2 at 37 °C. The cells were seeded in 96-well plates at a density of 6 × 10^3 cells/well and incubated for 24 h. The medium was then aspirated and replaced with 100 μL of fresh medium containing various concentrations of the test compound. After incubation for a further 24 h, the compound containing the medium was replaced with 100 μL of a MTT solution (0.5 mg/mL) and incubated for 4 h. Then the insoluble formazan crystals were dissolved in 100 µL of DMSO and measured at 490 nm on a microplate reader.

mushroom tyrosinase = assay: Mushroom tyrosinase inhibition (L-tyrosine substrate, dopachrome absorbance at 490 nm); type: biochemical; conditions: L-tyrosine as substrate, 30 min at 37 °C, mean ± SD, read-out: Anti-Tyrosinase IC50
Method: All the compounds were investigated for their tyrosinase inhibitory effects using L-tyrosine as the substrate. […] All the compounds were first dissolved in dimethyl sulfoxide (DMSO) and then diluted into different concentrations (1, 2, 4, 10, 40, 80, and 160 µM). An amount of 100 µL of each sample solution and 50 µL of the 2 mM L-tyrosine solution in 0.1 M phosphate buffer (pH 6.5) were added to 96-well microplates. After incubation at room temperature for 5 min, 50 µL of mushroom tyrosinase (300 U/mL in phosphate buffer) was added to each well. After further incubation for 30 min under 37 °C, the absorbance of dopachrome produced in the mixture was determined at 490 nm with a microplate reader (SpectraMax 190; Molecular Devices, Sunnyvale, CA, USA). The percent of inhibition of tyrosinase activity was calculated using the formula: % inhibition = (A − B)/A × 100, in which A is the absorbance at 490 nm without the test sample, and B is the absorbance at 490 nm with the test sample. IC50 values were calculated from the mean values of data from four determinations.

[2] = tested on: A375P (human melanoma) cell line; assay: MTT cytotoxicity assay, A375P; type: cell-based; conditions: 24 h treatment, mean ± SD, read-out: Cytotoxic effect IC50, cell line A375P
Method: as §1, §2

[3] = tested on: B16F10 (mouse melanoma) cell line; assay: MTT cytotoxicity assay, B16F10; type: cell-based; conditions: 24 h treatment, mean ± SD, read-out: Cytotoxic effect IC50, cell line B16F10
Method: as §1, §2

| SMILES | IC50 ([1]; Mus musculus, B16-F1, 24 h) | IC50 (mushroom tyrosinase) | IC50 ([2]; Homo sapiens, A375P, 24 h) | IC50 ([3]; Mus musculus, B16-F10, 24 h) | IC50 [1] | IC50 [2] | IC50 [3] |
| --- | --- | --- | --- | --- | --- | --- | --- |
| C=CC(C)(C)c1cc(CCCc2cc(O)c(O)c(CC=C(C)C)c2CC=C(C)C)c(O)cc1O [Compound 1, Kazinol C] | 17.6 ± 0.33 µM | > 80 µM | 12.1 ± 0.24 µM | 26 ± 0.33 µM | – | – | – |
| C=CC(C)(C)c1cc2c(cc1O)O[C@H](c1cc(O)c(O)c(CC=C(C)C)c1CC=C(C)C)CC2 [Compound 2, Kazinol E] | 13.3 ± 0.22 µM | > 80 µM | 11.5 ± 0.24 µM | 12.1 ± 0.87 µM | – | – | – |
| CC(C)=CCc1c(CCCc2ccc(O)cc2O)cc(O)c(O)c1CC=C(C)C [Compound 3, Kazinol F] | 13.8 ± 0.88 µM | 2.12 ± 0.21 µM | 18.16 ± 0.09 µM | 19.9 ± 0.73 µM | – | – | – |
| CC(C)=CCc1c([C@H]2Oc3cc(O)cc(O)c3C(=O)[C@@H]2O)cc(O)c(O)c1CC=C(C)C [Compound 4, (2R,3R)-3,5,7,3′,4′-pentahydroxy-5′,6′-diprenylflavanonol] | 24.4 ± 1.82 µM | 24.1 ± 0.3 µM | 13.8 ± 1 µM | 27.8 ± 0.63 µM | – | – | – |
| C=CC(C)(C)c1cc(CCCc2cc(O)c3c(c2CC=C(C)C)C[C@H](C(C)(C)OC)O3)c(O)cc1O [Compound 5, 5′-(2-methylbut-3-en-2-yl)-6″-(3-methylbut-2-enyl)-4″,5″-[(R)-2-(1-methoxy-1-methylethyl)]-dihydrofuranyl-2′,4′,3″-trihydroxydiphenylpropane] | 17.3 ± 0.22 µM | > 80 µM | 45.9 ± 0.65 µM | 43.2 ± 0.71 µM | – | – | – |
| O=c1[nH]cc(F)c(=O)[nH]1 [Compound 5-FU, 5-FU, reference compound] | – | – | – | – | 12.8 ± 0.16 µM | 13.1 ± 1.55 µM | 4.61 ± 0.16 µM |
| C=CC(C)(C)c1cc(CCCc2cc(O[C@@H]3O[C@H](CO)[C@@H](O)[C@H](O)[C@H]3O)c(O)c(CC=C(C)C)c2CC=C(C)C)c(O)cc1O [Compound 6, Kazinol C-3″-O-β-D-glucopyranoside] | > 80 µM | > 80 µM | > 80 µM | > 80 µM | – | – | – |
| C=CC(C)(C)c1cc(CCCc2cc(O[C@@H]3O[C@H](CO)[C@@H](O)[C@H](O)[C@H]3O)c(O)c(CC=C(C)C)c2CC=C(C)C)c(O[C@@H]2O[C@H](CO)[C@@H](O)[C@H](O)[C@H]2O)cc1O [Compound 7, kazinol C-2′,3″-di-O-β-D-glucopyranoside] | 17.8 to 24.2 µM | > 80 µM | 17.8 to 24.2 µM | 17.8 to 24.2 µM | 17.8 ± 1.65 µM | 23.6 ± 0.52 µM | 24.2 ± 1.26 µM |
| C=CC(C)(C)c1cc(CCCc2cc(O)c(O[C@@H]3O[C@H](CO)[C@@H](O)[C@H](O)[C@H]3O)c(CC=C(C)C)c2CC=C(C)C)c(O)cc1O [Compound 8, Kazinol C-4″-O-β-D-glucopyranoside] | > 80 µM | > 80 µM | > 80 µM | > 80 µM | – | – | – |
| C=CC(C)(C)c1cc(CCCc2cc(O[C@@H]3O[C@H](CO)[C@@H](O)[C@H](O)[C@H]3O)c(O[C@@H]3O[C@H](CO)[C@@H](O)[C@H](O)[C@H]3O)c(CC=C(C)C)c2CC=C(C)C)c(O)cc1O [Compound 9, kazinol C-3″,4″-di-O-β-D-glucopyranoside] | > 80 µM | > 80 µM | > 80 µM | > 80 µM | – | – | – |
| CC(C)=CCc1c(CCCc2ccc(O)cc2O)cc(O)c(O[C@@H]2O[C@H](CO)[C@@H](O)[C@H](O)[C@H]2O)c1CC=C(C)C [Compound 11, Kazinol F-4″-O-β-D-glucopyranoside] | > 80 µM | 0.71 ± 0.01 µM | > 80 µM | > 80 µM | – | – | – |
